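Test compounds were applied to cells in 96-well plates for 48 hours at 5 doses. GI50 is the concentration that inhibits growth by half. At the TGI there is no net growth.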
Columns and labels:
Test in all cases: DTP human tumour cell line panel, 48 h
UO-31 renal = system: UO-31 renal
COLO 205 colon = system: COLO 205 colon
CCRF-CEM leukemia = system: CCRF-CEM leukemia
OVCAR-8 ovarian = system: OVCAR-8 ovarian
HT29 colon = system: HT29 colon
OVCAR-4 ovarian = system: OVCAR-4 ovarian
ACHN renal = system: ACHN renal
NCI-H460 lung = system: NCI-H460 lung
A549 NSCLC = system: A549 NSCLC
HCC-2998 colon = system: HCC-2998 colon

| Compound | TGI (UO-31 renal) [µM] | TGI (COLO 205 colon) [µM] | TGI (CCRF-CEM leukemia) [µM] | TGI (OVCAR-8 ovarian) [µM] | TGI (HT29 colon) [µM] | TGI (OVCAR-4 ovarian) [µM] | TGI (ACHN renal) [µM] | TGI (NCI-H460 lung) [µM] | TGI (A549 NSCLC) [µM] | GI50 (UO-31 renal) [µM] | GI50 (COLO 205 colon) [µM] | GI50 (CCRF-CEM leukemia) [µM] | GI50 (OVCAR-8 ovarian) [µM] | GI50 (HCC-2998 colon) [µM] | TGI (HCC-2998 colon) [µM] | GI50 (HT29 colon) [µM] | GI50 (OVCAR-4 ovarian) [µM] | GI50 (ACHN renal) [µM] | GI50 (NCI-H460 lung) [µM] | GI50 (A549 NSCLC) [µM] |
| --- | --- | --- | --- | --- | --- | --- | --- | --- | --- | --- | --- | --- | --- | --- | --- | --- | --- | --- | --- | --- |
| O=[N+]([O-])c1cccc(C2SCc3nc4ccccc4n32)c1 (stereo not drawn) | > 100 | > 100 | > 100 | > 100 | > 100 | > 100 | > 100 | > 100 | > 100 |  |  |  |  |  |  |  |  |  |  |  |
| CC(C)c1cc(C(C)C)c(S(=O)(=O)NN)c(C(C)C)c1 |  | > 100 |  | > 100 | > 100 | > 100 | > 100 | > 100 | > 100 |  |  |  |  |  |  |  |  |  |  |  |
| CCOP(=O)(CCP(=O)(OCC)OCC)OCC.C[CH2][Sn]([Cl])([Cl])[CH2]C | > 66.5 | 50.9 | 50.5 | > 100 | > 93.6 | > 71.9 | 57.1 | > 100 | > 100 | > 54.2 | 30.4 | 15.5 | > 100 | > 69.4 | > 100 | 62.7 | > 48.7 | 36.7 | > 81.8 | > 100 |
| Nc1ccc2c(c1)C(=O)c1ccc(F)cc1-2 | > 100 | > 100 | > 100 | > 100 | > 100 | > 100 | > 100 | > 100 | > 100 |  |  |  |  |  | > 100 |  |  |  |  |  |
| CSC1=Nc2c(c(C)c(-c3ccccc3)n2COC(CO)CO)C2=NC(=O)C(C)N12 (stereo not drawn) | > 100 | > 100 | > 100 | > 100 | > 100 | > 100 | > 100 | > 100 | > 100 | > 100 | > 100 | > 100 | > 100 | > 100 | > 100 | > 100 | > 100 | > 100 | > 100 | > 100 |
| COc1cc(/C=C/C(=O)C(=Cc2ccc(F)c(F)c2)C(=O)/C=C/c2ccc(O)c(OC)c2)ccc1O | 16.8 | 4.74 | > 100 | 11.1 | 3.63 | 10.7 | 19.9 | 6.96 | 16.9 | 3.04 | 2.26 | 2.46 | 2.93 | 1.98 | 3.79 | 1.72 | 2.96 | 3.27 | 2.68 | 3.34 |
| CC(=O)OC1(C#N)CC2OC1C1C2N1C(=O)c1ccccc1 (stereo not drawn) | > 100 | > 100 | > 100 | > 100 |  | > 100 | > 100 | > 100 | > 100 |  |  |  |  |  | > 100 |  |  |  |  |  |
| COc1cc(CNC(=O)/C=C/C=C/c2ccc3c(c2)OCO3)ccc1OCc1cn(-c2ccc(Cl)c(Cl)c2)nn1 | 13.7 |  | 12.6 | 8.15 | 8.18 | 2.72 | 1.77 | 1.83 | 4.18 | 3.15 |  | 1.44 | 2.35 | 2.1 | 4.74 | 2.49 | 1.09 | 0.504 | 0.445 | 0.999 |
